The values that follow are results of earlier work, collected in US11414421B2, “Process for the preparation of ribociclib succinate and its novel crystalline forms thereof” (NATCO PHARMA LTD, priority 2018, dated 2022).

The structures appear in SMILES notation. Like-named read-outs stand apart in the source and are kept apart here.

In the case of `CN(C)C(=O)c1cc2cnc(Nc3ccc(N4CCNCC4)cn3)nc2n1C1CCCC1.O=C(O)CCC(=O)O` [Ribociclib succinate, 7-cyclopentyl-N,N-dimethyl-2-{[5-(piperazin-1-yl)pyridin-2-yl]amino}-7H-pyrrolo [2,3-d]pyrimidine-6-carboxamide succinate (1/1)], the absorbs moisture result (relative humidity 0-90-0% RH) is listed as “up to 2.0%” and the absorbs moisture entry (second value, printed as 0-90-0% RH) is on record as “up to 0.5%”.
